Data taken from ChEMBL document CHEMBL3991601, “The target landscape of clinical kinase drugs” (Science, 2017).
Calls of active or inactive are those of the source.

What was measured:
[1] = target: Mitotic checkpoint serine/threonine-protein kinase BUB1 (Homo sapiens, UniProt O43683)
[2] = target: Serine/threonine-protein kinase MRCK alpha (Homo sapiens, UniProt Q5VT25)
[3] = target: Cyclin-dependent kinase 2 (Homo sapiens, UniProt P24941)
[4] = target: T1, Serine/threonine-protein kinase ICK (Homo sapiens, UniProt Q9UPZ9)
T1 sequence (Q9UPZ9 whole entry): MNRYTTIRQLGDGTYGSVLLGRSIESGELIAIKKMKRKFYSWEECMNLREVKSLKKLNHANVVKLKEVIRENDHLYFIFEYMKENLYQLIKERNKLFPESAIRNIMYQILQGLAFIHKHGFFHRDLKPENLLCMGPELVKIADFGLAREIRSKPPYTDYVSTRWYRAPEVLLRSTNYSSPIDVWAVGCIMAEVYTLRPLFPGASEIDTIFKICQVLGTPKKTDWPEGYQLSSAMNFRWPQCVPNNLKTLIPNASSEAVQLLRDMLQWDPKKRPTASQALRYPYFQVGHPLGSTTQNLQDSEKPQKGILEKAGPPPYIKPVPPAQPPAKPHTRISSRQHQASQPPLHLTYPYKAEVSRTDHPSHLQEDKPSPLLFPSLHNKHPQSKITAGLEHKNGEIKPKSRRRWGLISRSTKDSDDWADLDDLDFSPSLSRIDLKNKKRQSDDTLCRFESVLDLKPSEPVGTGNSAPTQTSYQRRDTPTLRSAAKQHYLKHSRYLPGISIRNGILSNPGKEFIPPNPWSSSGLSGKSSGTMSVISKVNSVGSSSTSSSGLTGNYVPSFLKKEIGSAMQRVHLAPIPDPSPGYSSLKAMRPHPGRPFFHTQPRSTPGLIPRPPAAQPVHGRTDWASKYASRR

[5] = target: Insulin-like growth factor 1 receptor (Homo sapiens, UniProt P08069)
Chain of Insulin-like growth factor 1 receptor (P08069 31-736 limits assumed): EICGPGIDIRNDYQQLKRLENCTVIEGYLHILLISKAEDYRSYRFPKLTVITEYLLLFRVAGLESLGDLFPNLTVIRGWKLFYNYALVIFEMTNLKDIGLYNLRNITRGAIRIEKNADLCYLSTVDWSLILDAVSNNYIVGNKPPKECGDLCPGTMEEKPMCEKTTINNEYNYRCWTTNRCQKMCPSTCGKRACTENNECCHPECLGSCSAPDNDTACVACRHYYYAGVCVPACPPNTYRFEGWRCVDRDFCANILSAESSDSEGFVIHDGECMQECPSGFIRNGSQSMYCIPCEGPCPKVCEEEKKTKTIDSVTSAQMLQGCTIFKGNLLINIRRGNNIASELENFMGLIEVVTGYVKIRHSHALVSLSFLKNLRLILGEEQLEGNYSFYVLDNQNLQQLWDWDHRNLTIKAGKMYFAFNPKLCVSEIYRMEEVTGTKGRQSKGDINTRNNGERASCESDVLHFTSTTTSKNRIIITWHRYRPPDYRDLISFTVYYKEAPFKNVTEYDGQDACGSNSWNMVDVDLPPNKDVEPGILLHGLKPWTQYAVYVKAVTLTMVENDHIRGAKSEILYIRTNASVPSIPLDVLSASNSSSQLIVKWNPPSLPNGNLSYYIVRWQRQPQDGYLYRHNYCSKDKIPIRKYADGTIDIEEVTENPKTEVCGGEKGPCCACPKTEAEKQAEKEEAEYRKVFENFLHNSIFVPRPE
Chain of Insulin-like growth factor 1 receptor (P08069 741-1367 limits assumed): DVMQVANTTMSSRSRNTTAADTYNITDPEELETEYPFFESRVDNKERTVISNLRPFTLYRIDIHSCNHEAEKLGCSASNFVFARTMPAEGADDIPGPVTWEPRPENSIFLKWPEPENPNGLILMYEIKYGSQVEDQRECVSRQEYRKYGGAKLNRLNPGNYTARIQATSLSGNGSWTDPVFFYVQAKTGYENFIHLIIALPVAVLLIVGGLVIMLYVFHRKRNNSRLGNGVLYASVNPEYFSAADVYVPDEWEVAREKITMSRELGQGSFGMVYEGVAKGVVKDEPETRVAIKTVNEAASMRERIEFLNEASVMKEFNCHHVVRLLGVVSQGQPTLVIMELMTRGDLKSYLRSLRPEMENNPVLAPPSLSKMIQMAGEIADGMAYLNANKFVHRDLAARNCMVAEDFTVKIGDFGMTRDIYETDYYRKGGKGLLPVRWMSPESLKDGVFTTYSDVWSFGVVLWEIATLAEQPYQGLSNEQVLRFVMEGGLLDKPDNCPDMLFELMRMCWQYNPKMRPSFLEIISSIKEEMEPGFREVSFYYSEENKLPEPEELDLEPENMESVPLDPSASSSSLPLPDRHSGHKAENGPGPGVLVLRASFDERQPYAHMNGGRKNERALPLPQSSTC

[6] = target: Tyrosine-protein kinase Lck (Homo sapiens, UniProt P06239)
Chain of Tyrosine-protein kinase Lck (P06239 whole entry): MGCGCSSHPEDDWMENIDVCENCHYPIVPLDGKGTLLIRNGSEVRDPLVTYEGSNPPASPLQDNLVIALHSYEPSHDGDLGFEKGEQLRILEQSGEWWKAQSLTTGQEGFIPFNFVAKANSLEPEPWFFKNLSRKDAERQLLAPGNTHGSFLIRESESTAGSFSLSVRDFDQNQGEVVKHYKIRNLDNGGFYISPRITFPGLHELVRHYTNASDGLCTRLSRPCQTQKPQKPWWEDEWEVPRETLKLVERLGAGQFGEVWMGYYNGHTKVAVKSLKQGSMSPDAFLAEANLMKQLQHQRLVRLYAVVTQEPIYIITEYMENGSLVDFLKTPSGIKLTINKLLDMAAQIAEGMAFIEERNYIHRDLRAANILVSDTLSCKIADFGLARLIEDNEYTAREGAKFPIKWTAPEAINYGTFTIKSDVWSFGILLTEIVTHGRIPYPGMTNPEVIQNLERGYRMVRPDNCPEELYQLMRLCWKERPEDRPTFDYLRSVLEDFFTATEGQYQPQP

[7] = target: Mitogen-activated protein kinase 3 (Homo sapiens, UniProt P27361)
Chain of Mitogen-activated protein kinase 3 (P27361 whole entry): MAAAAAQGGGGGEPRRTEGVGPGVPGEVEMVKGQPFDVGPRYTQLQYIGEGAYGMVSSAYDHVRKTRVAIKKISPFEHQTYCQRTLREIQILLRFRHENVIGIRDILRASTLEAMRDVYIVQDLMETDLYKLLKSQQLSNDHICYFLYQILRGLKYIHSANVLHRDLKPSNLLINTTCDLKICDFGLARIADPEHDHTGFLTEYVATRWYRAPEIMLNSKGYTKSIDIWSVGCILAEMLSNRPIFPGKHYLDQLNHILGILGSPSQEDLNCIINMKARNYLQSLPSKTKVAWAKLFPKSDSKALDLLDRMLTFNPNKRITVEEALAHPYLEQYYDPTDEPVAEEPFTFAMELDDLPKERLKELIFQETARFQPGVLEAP

[8] = target: MAP kinase-activated protein kinase 2 (Homo sapiens, UniProt P49137)
Chain of MAP kinase-activated protein kinase 2 (P49137 whole entry): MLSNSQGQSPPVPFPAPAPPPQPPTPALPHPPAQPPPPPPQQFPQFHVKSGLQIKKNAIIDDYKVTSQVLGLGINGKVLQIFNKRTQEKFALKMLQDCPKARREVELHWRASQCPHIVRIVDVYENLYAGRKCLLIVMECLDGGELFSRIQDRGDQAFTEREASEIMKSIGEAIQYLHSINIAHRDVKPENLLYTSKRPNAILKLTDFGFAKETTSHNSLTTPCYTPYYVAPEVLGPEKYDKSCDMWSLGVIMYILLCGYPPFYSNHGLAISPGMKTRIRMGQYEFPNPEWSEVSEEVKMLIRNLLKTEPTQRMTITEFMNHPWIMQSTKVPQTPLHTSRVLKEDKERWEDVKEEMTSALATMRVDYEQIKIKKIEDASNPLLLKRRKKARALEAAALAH

[9] = target: Membrane-associated progesterone receptor component 1 (Homo sapiens, UniProt O00264)
[10] = target: Protein kinase C delta type (Homo sapiens, UniProt Q05655)
Chain of Protein kinase C delta type (Q05655 whole entry): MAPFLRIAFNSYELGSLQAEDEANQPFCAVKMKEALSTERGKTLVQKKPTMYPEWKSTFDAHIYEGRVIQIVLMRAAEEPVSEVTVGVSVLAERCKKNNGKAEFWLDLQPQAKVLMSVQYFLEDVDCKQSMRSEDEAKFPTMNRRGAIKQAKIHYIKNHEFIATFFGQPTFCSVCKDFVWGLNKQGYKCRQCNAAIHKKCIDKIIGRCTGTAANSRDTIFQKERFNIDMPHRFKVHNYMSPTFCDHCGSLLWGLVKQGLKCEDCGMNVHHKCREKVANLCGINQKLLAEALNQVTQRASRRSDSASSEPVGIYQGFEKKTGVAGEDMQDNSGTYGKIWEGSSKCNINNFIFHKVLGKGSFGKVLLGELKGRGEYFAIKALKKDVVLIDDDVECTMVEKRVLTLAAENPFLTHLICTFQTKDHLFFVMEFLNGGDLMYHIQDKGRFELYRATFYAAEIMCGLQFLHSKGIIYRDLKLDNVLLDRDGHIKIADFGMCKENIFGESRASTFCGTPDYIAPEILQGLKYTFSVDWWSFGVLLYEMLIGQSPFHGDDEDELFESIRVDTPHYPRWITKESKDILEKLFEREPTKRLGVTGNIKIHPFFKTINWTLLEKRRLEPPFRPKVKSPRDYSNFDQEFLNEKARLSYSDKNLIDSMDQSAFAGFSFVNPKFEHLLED

[11] = target: T2, Glycogen phosphorylase, brain form (Homo sapiens, UniProt P11216)
T2 sequence (P11216 whole entry): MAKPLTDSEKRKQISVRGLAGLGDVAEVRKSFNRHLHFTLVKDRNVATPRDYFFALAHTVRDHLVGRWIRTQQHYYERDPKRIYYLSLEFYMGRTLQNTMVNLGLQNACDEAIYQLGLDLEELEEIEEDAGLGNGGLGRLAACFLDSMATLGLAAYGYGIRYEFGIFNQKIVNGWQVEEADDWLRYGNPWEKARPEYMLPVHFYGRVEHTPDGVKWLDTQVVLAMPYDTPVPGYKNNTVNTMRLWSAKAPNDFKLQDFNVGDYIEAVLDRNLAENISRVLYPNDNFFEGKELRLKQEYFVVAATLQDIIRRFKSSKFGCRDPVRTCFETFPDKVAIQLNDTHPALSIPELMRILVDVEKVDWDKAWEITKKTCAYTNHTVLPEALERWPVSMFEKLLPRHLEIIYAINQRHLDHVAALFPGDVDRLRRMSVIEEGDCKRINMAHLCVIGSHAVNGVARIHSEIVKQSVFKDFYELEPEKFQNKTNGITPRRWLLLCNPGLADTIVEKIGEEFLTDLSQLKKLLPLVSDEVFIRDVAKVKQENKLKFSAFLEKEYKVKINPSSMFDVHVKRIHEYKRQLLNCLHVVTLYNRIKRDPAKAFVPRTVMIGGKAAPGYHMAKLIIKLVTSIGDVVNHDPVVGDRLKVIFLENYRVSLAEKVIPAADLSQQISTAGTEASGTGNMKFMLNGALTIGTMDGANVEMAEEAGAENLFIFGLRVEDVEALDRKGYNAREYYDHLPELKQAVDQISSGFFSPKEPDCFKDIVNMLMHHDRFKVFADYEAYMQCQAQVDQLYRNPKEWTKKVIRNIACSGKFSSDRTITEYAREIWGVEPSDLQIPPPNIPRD

[12] = target: T3, Ras-related protein Rab-27A (Homo sapiens, UniProt P51159)
T3 sequence (P51159 whole entry): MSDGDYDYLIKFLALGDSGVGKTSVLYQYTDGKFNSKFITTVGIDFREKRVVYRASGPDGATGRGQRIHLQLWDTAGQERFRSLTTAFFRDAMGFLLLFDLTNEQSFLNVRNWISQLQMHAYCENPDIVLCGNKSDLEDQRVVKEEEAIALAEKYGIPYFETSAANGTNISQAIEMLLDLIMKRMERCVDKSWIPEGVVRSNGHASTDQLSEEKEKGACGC

Measured: Kd
Note: in the data inactive means no Kd found up to 30 µM.

Chain of Serine/threonine-protein kinase MRCK alpha (Q5VT25 whole entry): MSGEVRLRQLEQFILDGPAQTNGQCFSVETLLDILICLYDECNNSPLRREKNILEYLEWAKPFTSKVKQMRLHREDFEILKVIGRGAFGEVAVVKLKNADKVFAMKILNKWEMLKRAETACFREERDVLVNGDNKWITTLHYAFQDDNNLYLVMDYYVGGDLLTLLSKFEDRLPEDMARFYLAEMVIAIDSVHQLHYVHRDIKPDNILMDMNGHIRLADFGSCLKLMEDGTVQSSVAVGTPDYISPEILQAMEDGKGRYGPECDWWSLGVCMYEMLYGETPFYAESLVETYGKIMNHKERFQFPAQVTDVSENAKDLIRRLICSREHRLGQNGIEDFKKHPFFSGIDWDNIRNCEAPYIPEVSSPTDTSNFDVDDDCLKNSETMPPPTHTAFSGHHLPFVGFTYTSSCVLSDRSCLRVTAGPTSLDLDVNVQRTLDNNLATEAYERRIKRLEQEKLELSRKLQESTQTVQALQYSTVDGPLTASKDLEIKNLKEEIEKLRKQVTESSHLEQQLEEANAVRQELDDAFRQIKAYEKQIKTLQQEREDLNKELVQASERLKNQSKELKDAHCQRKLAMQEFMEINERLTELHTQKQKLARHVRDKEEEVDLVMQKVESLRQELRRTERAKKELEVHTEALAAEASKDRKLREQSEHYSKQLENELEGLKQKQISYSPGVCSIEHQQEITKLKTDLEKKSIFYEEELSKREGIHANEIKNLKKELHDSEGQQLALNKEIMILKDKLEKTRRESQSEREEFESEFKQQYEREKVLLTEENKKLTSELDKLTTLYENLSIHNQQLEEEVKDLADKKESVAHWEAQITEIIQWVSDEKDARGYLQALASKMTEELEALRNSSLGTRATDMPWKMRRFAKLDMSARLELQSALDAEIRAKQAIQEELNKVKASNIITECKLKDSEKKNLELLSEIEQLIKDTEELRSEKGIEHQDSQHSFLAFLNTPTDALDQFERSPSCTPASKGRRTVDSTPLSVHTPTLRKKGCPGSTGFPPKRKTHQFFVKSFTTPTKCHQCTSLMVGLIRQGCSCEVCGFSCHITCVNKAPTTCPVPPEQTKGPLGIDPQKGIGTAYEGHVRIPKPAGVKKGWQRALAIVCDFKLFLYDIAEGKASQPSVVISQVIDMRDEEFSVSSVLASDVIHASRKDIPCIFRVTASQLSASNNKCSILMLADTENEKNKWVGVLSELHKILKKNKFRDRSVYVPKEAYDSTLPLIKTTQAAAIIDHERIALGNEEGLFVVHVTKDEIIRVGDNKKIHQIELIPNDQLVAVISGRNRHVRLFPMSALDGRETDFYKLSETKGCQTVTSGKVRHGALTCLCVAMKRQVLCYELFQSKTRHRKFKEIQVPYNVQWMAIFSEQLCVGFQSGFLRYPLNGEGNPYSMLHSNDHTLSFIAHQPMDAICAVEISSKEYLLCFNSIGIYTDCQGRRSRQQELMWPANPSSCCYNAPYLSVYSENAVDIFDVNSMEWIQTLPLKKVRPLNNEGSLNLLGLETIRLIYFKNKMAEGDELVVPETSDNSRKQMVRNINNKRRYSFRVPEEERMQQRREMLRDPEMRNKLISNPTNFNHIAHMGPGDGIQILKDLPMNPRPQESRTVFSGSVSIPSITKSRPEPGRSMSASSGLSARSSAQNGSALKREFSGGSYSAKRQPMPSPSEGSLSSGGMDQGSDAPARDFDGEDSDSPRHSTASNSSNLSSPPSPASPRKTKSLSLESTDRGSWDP

CCn1c(C(=O)N(C2CC2)C2CC2)cc2c3c(ncn3C)c(Nc3cc(C)n(C)n3)nc21 [BMS-911543]
inactive: [1] > 30 µM | [2] > 30 µM | [3] > 30 µM | [4] > 30 µM | [5] > 30 µM | [6] > 30 µM | [7] > 30 µM | [8] > 30 µM | [9] > 30 µM | [10] > 30 µM | [11] > 30 µM | [12] > 30 µM

FC(F)(F)c1ccc(/C=C/c2nc(COc3ccc(CCCCn4ccnn4)cc3)co2)cc1 [MUBRITINIB]
inactive: [1] > 30 µM | [2] > 30 µM | [3] > 30 µM | [4] > 30 µM | [5] > 30 µM | [6] > 30 µM | [7] > 30 µM | [8] > 30 µM | [9] > 30 µM | [10] > 30 µM | [11] > 30 µM | [12] > 30 µM
